In patent US7091038B2, “Ecdysone receptor-based inducible gene expression system” (RheoGene, Inc., priority 2000, dated 2006):

What was measured:
GAL4USP + VP16CfEcR [1] = test: Transactivation of reporter gene through switch 1.5 in CHO cells; type: cell-based, Choristoneura fumiferana; settings: switch 1.5, pGAL4RELuc
Experimental: (§1) This construct was prepared in the same way as switch 1.3 except MmRXRDEF was replaced with CfUSPDEF (SEQ ID NO: 67).
(§2) The cells were harvested and reporter activity was assayed.
(§3) Cells were harvested 24–48 hr after adding ligands. […] Twenty μl of lysate was assayed.

GAL4CfEcRVP16 = test: Transactivation of reporter gene through switch 1.6 in CHO cells; type: cell-based, Choristoneura fumiferana; settings: switch 1.6, pGAL4RELuc
Experimental: This construct was prepared so that both the GAL4 DNABD and the VP16AD were placed on the same molecule. GAL4DNABD (SEQ ID NO: 43) and VP16AD (SEQ ID NO: 49) were fused to CfEcRDEF (SEQ ID NO: 3) at N-and C-termini respectively.
as §2, §3

VP16CfEcR [2] = test: Transactivation of reporter gene through switch 1.7 in CHO cells; type: cell-based, Choristoneura fumiferana; settings: switch 1.7, pEcRELuc
Experimental: (§4) Six ecdysone response elements (“EcRE”; SEQ ID NO: 55) from the hsp27 gene were placed upstream of the promoter and a luciferase gene (SEQ ID NO: 66). This switch most probably uses endogenous RXR.
as §2, §3

VP16CfEcR [3] = test: Transactivation of reporter gene through switch 1.7 in 3T3 cells; type: cell-based, Choristoneura fumiferana; settings: switch 1.7, pEcRELuc
Experimental: as §4, §2
(§5) The cells were plated when they reached 50% confluency.
as §3

GAL4EcR + VP16USP = test: Transactivation of reporter gene through switch 1.2 in 293 cells; type: cell-based, Choristoneura fumiferana; settings: switch 1.2, pGAL4RELuc
Experimental: This construct was prepared in the same way as in switch 1.1 above except MmRXRDEF was replaced with the D, E and F domains from spruce budworm USP (“CfUSPDEF”; SEQ ID NO: 67). The constructs used in this example are similar to those disclosed in U.S. Pat. No. 5,880,333 except that Choristoneura fumiferana USP rather than Drosophila melanogaster USP was utilized.
as §2
(§6) The same procedures described for CHO were followed for 293 cells except that the cells were plated in biocoated plates to avoid clumping.
as §3

CfVgRXR + MmRXR = test: Transactivation of reporter gene through switch 1.9 in 293 cells; type: cell-based, Choristoneura fumiferana; Mus musculus; settings: switch 1.9, pIND(SP1)LacZ
Experimental: This example was prepared in the same way as switch 1.8 except DmEcR was replaced with a truncated CfEcR comprising a partial A/B domain and the complete CDEF domains [SEQ ID NO: 70 (polynucleotide) and SEQ ID NO: 71 (polypeptide)].
as §2, §6, §3

CfVgRXR = test: Transactivation of reporter gene through switch 1.10 in 293 cells; type: cell-based, Choristoneura fumiferana; settings: switch 1.10, pIND(SP1)LacZ
Experimental: This example was prepared in the same way as switch 1.9 except MmRXR (SEQ ID NO: 62) was deleted.
as §2, §6, §3

GAL4RXR + VP16CfEcR = test: Transactivation of reporter gene through switch 1.3 in CV1 cells; type: cell-based, Mus musculus; Choristoneura fumiferana; settings: switch 1.3, pGAL4RELuc
Experimental: as §2, §5
(§7) The same procedures described for NIH3T3 cells were followed for CV1 cells
as §3

GAL4USP + VP16CfEcR [4] = test: Transactivation of reporter gene through switch 1.5 in CV1 cells; type: cell-based, Choristoneura fumiferana; settings: switch 1.5, pGAL4RELuc
Experimental: as §1, §2, §5, §7, §3

VP16CfEcR [5] = test: Transactivation of reporter gene through switch 1.7 in CV1 cells; type: cell-based, Choristoneura fumiferana; settings: switch 1.7, pEcRELuc
Experimental: as §4, §2, §5, §7, §3

CfEcR = test: Transactivation through CfEcR- versus DmEcR-based switches in mammalian cell lines (Tables 1–4); parameters: species or system Choristoneura fumiferana
Experimental: as §3

DmVgRXR + MmRXR = DmVgRXR + MmRXR (Drosophila melanogaster, UniProt P34021, E282G/G283S/G286V); test: Transactivation of reporter gene through switch 1.8 in CV1 cells; type: cell-based, Drosophila melanogaster; Mus musculus; parameters: host or cells: CHO, NIH3T3, 293 or CV1 cells; settings: switch 1.8, pIND(SP1)LacZ
Source text: This system was purchased from Invitrogen Corp., Carlsbad, California. It comprises a Drosophila melanogaster EcR (“DmEcR”) with a modified DNABD fused to VP16AD and placed under the control of a CMV promoter (SEQ ID NO: 68). Full length MmRXR (SEQ ID NO: 62) was placed under the control of the RSV promoter (SEQ ID NO: 69). The reporter, pIND(SP1)LacZ, contains five copies of a modified ecdysone response element (“EcRE”, E/GRE), three copies of an SPI enhancer, and a minimal heat shock promoter, all of which were placed upstream to the LacZ reporter gene.
as §2, §5, §7, §3

GAL4RXR + VP16DmEcR = biological target: T1, GAL4RXR + VP16DmEcR (Drosophila melanogaster, UniProt P34021); test: Transactivation of reporter gene through switch 1.4 in CV1 cells; type: cell-based, Mus musculus; Drosophila melanogaster; parameters: expressed in transfected cells; host or cells: CV1 cells; settings: switch 1.4, pGAL4RELuc
T1 sequence (P34021 254-878): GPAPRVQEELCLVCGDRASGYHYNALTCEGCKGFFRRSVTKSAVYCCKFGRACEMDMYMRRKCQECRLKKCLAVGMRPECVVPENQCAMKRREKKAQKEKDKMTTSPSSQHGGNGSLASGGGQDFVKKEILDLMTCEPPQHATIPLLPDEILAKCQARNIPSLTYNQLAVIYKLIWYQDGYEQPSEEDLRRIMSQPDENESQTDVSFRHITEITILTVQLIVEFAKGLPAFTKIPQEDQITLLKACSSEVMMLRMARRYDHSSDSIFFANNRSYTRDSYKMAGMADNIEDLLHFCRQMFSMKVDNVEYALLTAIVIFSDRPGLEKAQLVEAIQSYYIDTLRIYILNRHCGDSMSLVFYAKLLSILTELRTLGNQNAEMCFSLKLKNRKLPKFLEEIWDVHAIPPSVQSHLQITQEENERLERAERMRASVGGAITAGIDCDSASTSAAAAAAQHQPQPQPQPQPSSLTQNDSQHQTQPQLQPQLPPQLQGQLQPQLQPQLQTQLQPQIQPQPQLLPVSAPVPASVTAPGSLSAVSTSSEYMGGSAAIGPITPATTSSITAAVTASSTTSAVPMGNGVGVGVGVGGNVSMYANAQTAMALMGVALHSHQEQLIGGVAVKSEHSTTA
T1 sequence (P28700 206-467 partner limits assumed): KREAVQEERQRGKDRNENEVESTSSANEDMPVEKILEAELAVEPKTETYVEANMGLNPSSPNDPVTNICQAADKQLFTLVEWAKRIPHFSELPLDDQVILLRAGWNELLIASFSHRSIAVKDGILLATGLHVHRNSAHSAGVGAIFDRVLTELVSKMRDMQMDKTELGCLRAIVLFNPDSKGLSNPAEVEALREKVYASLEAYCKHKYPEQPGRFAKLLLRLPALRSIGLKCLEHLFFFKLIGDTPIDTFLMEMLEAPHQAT
Experimental: This construct was prepared in the same way as switch 1.3 except CfEcRCDEF was replaced with DmEcRCDEF (SEQ ID NO: 6).
as §2, §5, §7, §3

DmVgRXR + MmRXR, sequence (P28700 whole entry, the tested form may be a part): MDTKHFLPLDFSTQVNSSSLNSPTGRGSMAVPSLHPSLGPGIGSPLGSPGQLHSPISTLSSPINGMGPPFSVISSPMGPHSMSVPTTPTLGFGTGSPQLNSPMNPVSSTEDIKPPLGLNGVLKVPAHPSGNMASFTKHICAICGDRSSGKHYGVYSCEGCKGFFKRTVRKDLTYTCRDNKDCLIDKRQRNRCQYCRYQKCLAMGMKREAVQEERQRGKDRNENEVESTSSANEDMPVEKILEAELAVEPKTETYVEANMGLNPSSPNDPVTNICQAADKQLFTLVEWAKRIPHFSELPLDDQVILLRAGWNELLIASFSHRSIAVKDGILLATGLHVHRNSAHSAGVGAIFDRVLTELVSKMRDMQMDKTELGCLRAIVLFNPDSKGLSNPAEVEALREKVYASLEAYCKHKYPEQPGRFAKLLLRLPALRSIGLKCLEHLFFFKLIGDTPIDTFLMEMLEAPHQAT
DmVgRXR + MmRXR, sequence (P34021 whole entry E282G/G283S/G286V, the tested form may be a part): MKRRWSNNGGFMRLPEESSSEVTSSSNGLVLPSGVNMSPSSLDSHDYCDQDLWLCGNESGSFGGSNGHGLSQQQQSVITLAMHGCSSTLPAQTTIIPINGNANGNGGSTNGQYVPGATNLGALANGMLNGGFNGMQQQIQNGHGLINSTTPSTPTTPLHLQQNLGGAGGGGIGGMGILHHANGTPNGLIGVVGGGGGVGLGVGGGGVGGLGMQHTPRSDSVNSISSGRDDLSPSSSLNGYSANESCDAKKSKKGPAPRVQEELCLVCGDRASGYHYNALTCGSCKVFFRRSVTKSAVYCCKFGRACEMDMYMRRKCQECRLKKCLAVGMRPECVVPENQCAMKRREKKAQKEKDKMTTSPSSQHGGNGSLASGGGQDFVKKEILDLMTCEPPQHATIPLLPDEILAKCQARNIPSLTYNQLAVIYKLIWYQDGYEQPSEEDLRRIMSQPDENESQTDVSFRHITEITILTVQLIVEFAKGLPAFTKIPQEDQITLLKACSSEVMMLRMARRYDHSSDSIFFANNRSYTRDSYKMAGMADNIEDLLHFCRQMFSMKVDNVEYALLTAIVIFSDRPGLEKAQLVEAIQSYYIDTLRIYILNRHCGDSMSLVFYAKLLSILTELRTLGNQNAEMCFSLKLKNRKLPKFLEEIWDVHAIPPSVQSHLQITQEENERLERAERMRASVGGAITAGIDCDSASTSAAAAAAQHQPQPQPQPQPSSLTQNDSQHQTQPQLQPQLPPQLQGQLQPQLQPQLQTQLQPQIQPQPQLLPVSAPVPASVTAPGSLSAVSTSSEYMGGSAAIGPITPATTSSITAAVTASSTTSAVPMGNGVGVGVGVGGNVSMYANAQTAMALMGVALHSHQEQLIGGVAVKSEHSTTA

CCc1c(OC)cccc1C(=O)NN(C(=O)c1cc(C)cc(C)c1)C(C)(C)C [N-(2-ethyl-3-methoxybenzoyl)-N′-(3,5-dimethylbenzoyl)-N′-t-butylhydrazine]
Mean Fold Activation with 50 μM N-(2-ethyl-3-methoxybenzoyl)-N′-(3,5-dimethylbenzoyl)-N′-t-butylhydrazine (GAL4USP + VP16CfEcR [1]): 2 fold
Mean Fold Activation with 50 μM N-(2-ethyl-3-methoxybenzoyl)-N′-(3,5-dimethylbenzoyl)-N′-t-butylhydrazine (GAL4CfEcRVP16): 9 fold
Mean Fold Activation with 50 μM N-(2-ethyl-3-methoxybenzoyl)-N′-(3,5-dimethylbenzoyl)-N′-t-butylhydrazine (VP16CfEcR [2]): 36 fold
Mean Fold Activation Through N-(2-ethyl-3-methoxybenzoyl)-N′-(3,5-dimethylbenzoyl)-N′-t-butylhydrazine (VP16CfEcR [3]): 1 fold
Mean Fold Activation Through N-(2-ethyl-3-methoxybenzoyl)-N′-(3,5-dimethylbenzoyl)-N′-t-butylhydrazine (GAL4EcR + VP16USP): 2 fold
Mean Fold Activation Through N-(2-ethyl-3-methoxybenzoyl)-N′-(3,5-dimethylbenzoyl)-N′-t-butylhydrazine (CfVgRXR + MmRXR): 12 fold
Mean Fold Activation Through N-(2-ethyl-3-methoxybenzoyl)-N′-(3,5-dimethylbenzoyl)-N′-t-butylhydrazine (CfVgRXR): 3 fold
Mean Fold Activation Through N-(2-ethyl-3-methoxybenzoyl)-N′-(3,5-dimethylbenzoyl)-N′-t-butylhydrazine (GAL4RXR + VP16CfEcR): 25 fold
Mean Fold Activation Through N-(2-ethyl-3-methoxybenzoyl)-N′-(3,5-dimethylbenzoyl)-N′-t-butylhydrazine (GAL4USP + VP16CfEcR [4]): 3 fold
Mean Fold Activation Through N-(2-ethyl-3-methoxybenzoyl)-N′-(3,5-dimethylbenzoyl)-N′-t-butylhydrazine (VP16CfEcR [5]): 1 fold
Potency as activator of CfEcR compared to DmEcR (CfEcR): more potent activators of CfEcR as compared to Drosophila melanogaster EcR (DmEcR)
Mean Fold Activation Through N-(2-ethyl-3-methoxybenzoyl)-N′-(3,5-dimethylbenzoyl)-N′-t-butylhydrazine (DmVgRXR + MmRXR): 12 fold
Mean Fold Activation Through N-(2-ethyl-3-methoxybenzoyl)-N′-(3,5-dimethylbenzoyl)-N′-t-butylhydrazine (GAL4RXR + VP16DmEcR): 80 fold
